From patent US20240366594A1, “Small Molecule Inhibitors of Formation of Neutrophil-Derived Extracellular Traps (NETosis) and Uses Thereof” (The Brigham and Women's Hospital, Inc., priority 2021, published 2024)

Key:
[1] = tested on: Murine neutrophils; assay: NET induction in response to nigericin in murine neutrophils; format: cell-based, mouse; set-up: dose or concentration left out as unconfirmed; conditions: nigericin for 3 hours; FIG. 5E
Description: (§1) FIGS. 5A-J. Class I/II HDACs drive NET formation. • A) Quantification of extracellular DNA released by neutrophils treated, or not, with 1 μM GSK484 for 1 h and then stimulated with 1 μM PMA for 4 hours. Unstimulated, neutrophils not treated with drugs were used as a control. • B) Freshly purified human neutrophils were treated with the indicated HDAC inhibitors at different doses (0.08, 0.4, 2 and 10 μM) for 1 hour. Extracellular DNA release was assessed in the supernatant 3 hours after PMA stimulation. The dotted line represents the amount of DNA released from neutrophils treated with PMA alone. […] NETosis induction was measured as level of anti-CitH3 fluorescent signal. […] NET induction was measured as in (C). […] NETosis induction was measured as level of anti-CitH3 fluorescent signal. […] NET induction was measured as in (F). • H, I) Freshly isolated neutrophils from two different donors were treated with different doses of ricolinostat, citarinostat (10, 2, 0.4, 0.08 μM) or GSK484 (10, 5, 2 μM) for 1 h and then stimulated with 1 μM PMA. NET induction was measured as level of anti-CitH3 fluorescent signal (H) and by microscopy as number of cells positive for CitH3 signal per field of view (FOV) (I). […] NET induction was measured as level of anti-CitH3 fluorescent signal. […] Statistics were calculated using One-way ANOVA (A, E, I) and Two-way ANOVA (B, F, G, H, L). […]

[2] = tested on: neutrophils that lack HDAC6; assay: NET induction in PMA-stimulated neutrophils from HDAC6KO mice; format: cell-based, mouse; conditions: ricolinostat 10, 2, 0.4, 0.08 μM, then PMA; FIG. 5G
Description: as §1

O=C(CCCCCCNC(=O)c1cnc(N(c2ccccc2)c2ccccc2)nc1)NO [ricolinostat]
NET induction in response to nigericin (anti-CitH3 signal) [1]: inhibited NET induction
NET induction in HDAC6-lacking neutrophils [2]: remained sensitive
